Experimental data published in patent publication US6866861B1, “Method and composition for enhancing milk component concentrations” (Land O'Lakes, Inc., priority 1999, dated 2005).

Columns and labels:
cows [1] = assay: Abomasal infusion of glycerol on an on-off-on schedule, total solids in milk (Example 6, FIG. 3); assay type: in vivo; conditions: 150 g/cow/day abomasal weeks 1-3 and 7-9, water weeks 4-6; average of two cows
Procedure: FIG. 3 is a graph of the concentration of total solids in milk versus time when abomasally infusing glycerol into cattle in accordance with the method of the present invention. To determine the weight percent total solids, wet basis, in a sample, the actual weight of total solids is determined by analyzing the sample in accordance with Method #925.23 (33.2.09) of Official Methods of Analysis, Association of Official Analytical Chemists (AOAC) (16th Ed., 1995). The weight percent total solids, wet basis, is then calculated by dividing the actual weight of total solids by the actual weight of the sample. In Example 6, two cows were abomasally infused at the rate of 150 grams per cow per day of glycerol on an on-off-on schedule to determine whether there were any benefits to intermittently providing glycerol to the abomasum of the cattle. For each cow, glycerol was abomasally infused during weeks 1-3 and weeks 7-9, while water, and not glycerol, was abomasally infused into each cow during weeks 4-6. The results of this test are graphically depicted in FIG. 3 as the concentration, expressed as weight percent, of total solids in the milk produced by the cattle during the test period.

cows [2] = assay: Abomasal infusion of glycerol in early lactation cows, milk component concentrations (Example 4); assay type: in vivo, cow; conditions: for Fat / Lactose / Total Solids / True Protein: 150 g/cow/day abomasal, average of 3 cows, early lactation
Procedure: To determine the weight percent total solids, wet basis, in a sample, the actual weight of total solids is determined by analyzing the sample in accordance with Method #925.23 (33.2.09) of Official Methods of Analysis, Association of Official Analytical Chemists (AOAC) (16th Ed., 1995). The weight percent total solids, wet basis, is then calculated by dividing the actual weight of total solids by the actual weight of the sample. The weight percent of true protein, wet basis, for a particular sample is calculated after first determining the wet basis weight percent of total Kjeldahl nitrogen and the wet basis weight percent of non-protein nitrogen in the sample. The wet basis weight percent of total Kjeldahl nitrogen in the sample is determined using the method referenced above. The wet basis weight percent of non-protein nitrogen (NPN) in the sample is determined in accordance with Method #991.21 (33.2.12) of Official Methods of Analysis, Association of Official Analytical Chemists (AOAC) (16th Ed., 1995). The weight percent of true protein, wet basis, in the sample is then determined by subtracting the wet basis weight percent of non-protein nitrogen in the sample from the wet basis weight percent of total Kjeldahl nitrogen in the sample. To determine the weight percent lactose, wet basis, in a liquid sample, the weight of the liquid sample is first determined. The actual weight of lactose in the liquid sample may then be determined using analysis kit number 176-303, that is available from Boehringer-Mannheim of Indianapolis, Ind. in accordance with the procedural instructions included with analysis kit number 176-303. The weight percent lactose, wet basis, in the liquid sample is then calculated by dividing the actual weight of lactose in the liquid sample by the actual weight of the liquid sample. To determine the weight percent fat, wet basis, in a sample, the actual weight of fat in the sample is determined in accordance with Method #974.09 (33.7.18) of Official Methods of Analysis, Association of Official Analytical Chemists (AOAC) (16th Ed., 1995). The weight percent fat, wet basis, is then calculated by dividing the actual weight of fat in the sample by the actual weight of the sample. In this example, glycerol was abomasally infused into three different cows at a rate of 150 grams per cow per day during a 14 day test period. The rations provided to the cows during the period extending from day 0, prior to abomasal infusion of glycerol, through day 14 of the test period were the same. The only difference in feeding of the cows between day 0 and days 1-14 of the test period were that during days 1-14 the cows were abomasally infused with the dosage of 150 grams of glycerol per cow per day. The glycerol was not combined with any other materials prior to being abomasally infused into the cattle. Milk from the three cows was collected and analyzed prior to infusion (on day 0) and also was collected and analyzed on the third, seventh and fourteenth day of the test period. The results presented in Table 4 below for each milk component for each particular day are averages for the milk collected from the three different cows. The net change for the different milk components presented in Table 4 was calculated by averaging the results of days 3, 7 and 14 for a particular milk component and subtracting the results presented for day 0 for the particular milk component. […] This increase in true protein concentration is particularly significant considering that the test cattle were in the early lactation phase (less than 90 days into milk production) when abomasally infused with glycerol. Typically, when being fed ordinary rations, the concentration of true protein in milk produced by lactating cattle decreases as the early lactation phase progresses.

[3] = abomasal infusion, early lactation phase
[4] = milk, average of days 3, 7, 14 minus day 0

For `OCC(O)CO` [glycerol], the “weight percent of total solids in the milk (FIG. 3, in words)” value (cows [1]) was “increased”, the “weight percent of fat in the milk (conclusion in words)” value (cows [2]; [3]) was “substantially stabilized” and the “weight percent of total solids in the milk (conclusion in words)” value (cows [2]; [3]) was “substantially stabilized”. For the same compound, the “weight percent of true protein in the milk (conclusion in words)” value (cows [2]; [3]) was “net increase”, the Fat (cows [2]; milk, Day 3) was 3.80 Wt % and the Lactose (cows [2]; milk, Day 3) was 4.78 Wt. %. The “Total Solids” value (cows [2]; milk, Day 3) was 12.67 Wt. %, the “True Protein” value (cows [2]; milk, Day 3) was 3.33 Wt. % and the Fat (cows [2]; milk, Day 7) was 3.53 Wt %. For the same compound, the Lactose (cows [2]; milk, Day 7) was 4.41 Wt. %, the “Total Solids” value (cows [2]; milk, Day 7) was 12.04 Wt. % and the “True Protein” value (cows [2]; milk, Day 7) was 3.32 Wt. %. For the same compound, the Fat (cows [2]; milk, Day 14) was 3.68 Wt %, the Lactose (cows [2]; milk, Day 14) was 4.51 Wt. % and the “Total Solids” value (cows [2]; milk, Day 14) was 12.34 Wt. %. The “True Protein” value (cows [2]; milk, Day 14) was 3.38 Wt. %, the “Fat, Net Change” value (cows [2]; [4]) was −0.11 Wt % and the “Lactose, Net Change” value (cows [2]; [4]) was −0.07 Wt. %. For the same compound, the “Total Solids, Net Change” value (cows [2]; [4]) was −0.05 Wt. %, the “True Protein, Net Change” value (cows [2]; [4]) was “+0.11 Wt. %” and the “decrease in the weight percent of lactose” value (cows [2]; milk, net change over test period) was 0.07%.
